“Also recorded” adds a separate entry of the source.
Columns and labels:
TAMs [1] = assay: ex vivo differentiated TAMs treated with compound, marker expression by flow cytometry (FIG. 1b); format: cell-based, mouse; conditions: oleuropein 50 μM
Method: (§1) Immunosuppressive myeloid cell subsets resembling tumor-infiltrating subsets (g-MDSCs, m-MDSCs and TAMs) were differentiated from mouse bone marrow following published procedures using conditioning medium produced by LLC tumor cells stably expressing GMCSF and MCSF cells. g- and m-MDSCs were purified using the myeloid-derived suppressor cell isolation kit (Miltenyi Biotec, Bergisch, Germany) according to manufacturer's recommendations. MDSCs and TAMs were seeded with 500 nM BML-275 or 50 μM oleuropein and incubated for seven days.
(§2) Surface and intracellular staining were carried out as described before with the following fluorochrome-conjugated antibody clones: AF488 anti-CD49d (R1-2), PE anti-CD4 (GK1.5), APCanti-CD8(53-6.7), brilliant Violet 510™ anti-I-A/I-E (M5/114.15.2,PE/Cyanine7anti-Ly-6G (1A8), and APC anti-CD80 (16-10A1) (Biolegend), FITC anti-IL-12 (C15.6) and BV421 anti-IL-2 (JES6-5H4) (BD Bioscience), APC-Vio® 770 anti-Ly-6C (REA796), PE REAfinity™ anti-F4/80 (REA126), and APC anti-CD68 (REA886) (Miltenyi), PerCP-Cyanine5.5 Anti-Human/Mouse CD11b (M1/70) (Tonbo), and AF488 anti-IFNγ (Clone XMG1.2) (BD Pharmigen). For human cells, it was used the following fluorochrome-conjugated antibodies: PerCP-Cy5.5-anti-CD11b (integrina alfa M) (M1/70), Violet Fluor 450 anti-CD14 antibody (61D3) (Tonbo), PE anti-CD115 (CSF-1R) (9-4D2-1E4) (Biolegend), PE-Cy™7 anti-CD11c (Clone B-ly6) (BD Bioscience), and APC anti-HLA-DR (REA517) (Miltenyi).
(§3) Data were collected using the FACSCanto Flow Cytometer (BD Biosciences) for ex vivo and in vitro experiments at Navarrabiomed Biomedical Research Center and Cyroflex LX flow cytometer (Beckman Counter). Data were analyzed with Flowjo.

TAMs [2] = assay: quantitative proteomics and Ingenuity Pathway Analysis of TAM; format: cell-based, mouse
Method: as §1
A unique proteomic experiment was carried out with five biological replicates per sample (m-MDSC, g-MDSC and TAM). Cells were homogenized in a lysis buffer containing 7 M urea, 2 M thiourea 50 mM DTT. The homogenates were spun down at 14000 g for 1 h at 15 °C. Before proteomic analysis, protein extracts were diluted with Laemmli sample buffer in 100 μL and loaded into a 0.75 mm thick polyacrylamide gel with a 4% stacking gel casted over a 12.5% resolving gel. The run was stopped as soon as the front entered 3 mm into the resolving gel so that the whole proteome became concentrated in the stacking/resolving gel interface. Bands were stained with Coomassie Brilliant Blue, excised from the gel and protein enzymatic cleavage was carried out with trypsin (Promega; 1:20, w/w) at 37 °C for 16 h as previously described. Purification and concentration of peptides was performed using C18 Zip Tip Solid Phase Extraction (Millipore).
Peptide mixtures were separated by reverse phase chromatography using an UltiMate 3000 UHLPC System (Thermo Scientific) fitted with an Aurora packed emitter column (lonopticks, 25 cm×75 μm ID, 1.6 μm C18). Samples were first loaded for desalting and concentration into an Acclaim PepMap column (ThermoFisher, 0.5 cm×300 μm ID, 5 μm C18) packed with the same chemistry as the separating column. Mobile phases were 100% water 0.1% formic acid (FA) (buffer A) and 100% Acetonitrile 0.1% FA (buffer B). Column gradient was developed in a 120 min two step gradient from 5% B to 20% B in 90 min and 20% B to 32% B in 30 min. Column was equilibrated in 95% B for 10 min and 5% B for 20 min. During the whole process, the precolumn was in line with the column and the flow maintained all along the gradient at 300 nl/min. The column temperature was maintained at 40 °C using an integrated column oven (PRSO-V2, Sonation, Biberach, Germany) and interfaced online with the Orbitrap Exploris 480 MS. Spray voltage were set to 2 kV, funnel RF level at 40, and heated capillary temperature at 300 °C. For DDA experiments full MS resolutions were set to […] at m/z 200 and full MS AGC target was set to Standard with an IT mode Auto. Mass range was set to 375-1500. AGC target value for fragment spectra was set to Standard with a resolution of 15,000 and 3 seconds for cycle time. The intensity threshold was kept at 8E3. Isolation width was set at 1.4 m/z. Normalized collision energy was set at 30%. All data were acquired in centroid mode using positive polarity and peptide match was set to off, and isotope exclusion was on.
Raw files were processed with MaxQuant v1.6.17.0 using the integrated Andromeda Search engine. All data were searched against a target/decoy version of the mouse Uniprot Reference Proteome with March 2021 release. First search peptide tolerance was set to 20 ppm, main search peptide tolerance was set to 4.5 ppm. Fragment mass tolerance was set to 20 ppm. Trypsin was specified as enzyme, […] carbamidomethylation of cysteine was specified as fixed modification and peptide N-terminal acetylation, oxidation of methionine, deamidation of asparagine and glutamine and pyro-glutamate formation from glutamine and glutamate were considered variable modifications with a total of two variable modifications per peptide. […]

MDSCs = assay: ex vivo differentiated MDSCs treated with compound, marker expression by flow cytometry (FIG. 1a); format: cell-based, mouse; conditions: oleuropein 50 μM
Method: as §1, §2, §3

CD4 T cells = assay: mixed lymphocyte reaction (MLR) with MDSCs as stimulator cells (FIG. 1c,d); format: cell-based, mouse
Method: MLR were carried out following standard procedures. Briefly, 100,000 MDSCs or TAMs from C57BL/6 mice were co-cultured in 96-well plates with 100,000 lymphocytes from BALB/c mice. Co-cultured cells were treated with 50 µM oleuropein and compared with control vehicle. After 5 days, T-lymphocyte activation, differentiation and proliferation were assessed by flow cytometry. T-cell activation and proliferation markers (Ki-67) and pro-inflammatory cytokine production (IL-2 and IFNγ) were evaluated by flow cytometry in CD4 and CD8 T cells as described before.
as §2

[3] = to elenolic acid and glucose; cited from earlier work
TAMCs = assay: apoptotic effect on myeloid cell populations; format: cell-based

C/C=C1/[C@H](O[C@@H]2O[C@H](CO)[C@@H](O)[C@H](O)[C@H]2O)OC=C(C(=O)OC)[C@H]1CC(=O)OCCc1ccc(O)c(O)c1 [oleuropein]
cells co-expressing MHC-II and CD80 (TAMs [1]; BML-275 500 nM, TAMs): significant elevation | polarization of TAMs (TAMs [1]): polarized MDSCs and TAMs into activated myeloid cells; also recorded: polarized TAMs to activated macrophages | IL-12 production (TAMs [1]; TAMs): upregulated IL-12 production only in the presence of oleuropein | activated macrophages and pro-inflammatory activities of macrophages (TAMs [2]): enhances | BAG2 signalling (TAMs [2]; IPA): downregulated | EIF2 signalling (TAMs [2]; IPA): upregulated | Flt3 signalling (TAMs [2]; IPA): upregulated | For-mediated (Fcr-mediated) phagocytosis signalling (TAMs [2]; IPA): upregulation | Hif1a signalling (TAMs [2]; IPA): downregulated | fmlp signalling (TAMs [2]; IPA): upregulated | immunosuppressive markers (TAMs [2]; IPA): downregulation | mTOR signalling (TAMs [2]; IPA): downregulated | For-mediated (Fcr-mediated) phagocytosis signalling (TAMs [2]; IPA, listed as Oleuropein): upregulated | polarization of MDSCs (MDSCs): polarized MDSCs and TAMs into activated myeloid cells | IL-12 (MDSCs; MDSCs): significant increase | T cell activation capacities (CD4 T cells; oleuropein-reprogrammed MDSCs and TAMs): enhanced T cell activation capacities | immune cell activation (CD4 T cells; particularly CD4 T cell activation): induces an immune cell activation | CD4 T cell stimulation assessed by IFNγ and IL-2 production (CD4 T cells; treated MDSCs as stimulators, 5 days): potently stimulated | decomposition by acid or enzymic hydrolysis [3]: decomposes easily | apoptotic effect (TAMCs): does not provide any apoptotic effect

— patent publication US20260364101A1, “OLEUROPEIN IN THE MANAGEMENT OF CANCER” (FUNDACIÓN MIGUEL SERVET, priority 2023, published 2026)
